Source: the supplement of paper PMC5844555

Assays:
Experiment in all cases: 3' UTR reporter interaction score (median-centred robust z-score of log2 firefly/Renilla activity); higher = less repression of the 3' UTR reporter
Details in all cases: HEK293T; 48 h
TP53 = system: TP53
Procedure, shortened: (§1)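 HEK293T cells (10,000/well, 96-well plates) were co-transfected using DharmaFECT Duo with 100 ng firefly luc2P reporter carrying the gene's 3' UTR, 20 ng Renilla pRL-TK control and 2.5 pmol miRNA mimic. Dual-luciferase activities were read 48 h post-transfection. The interaction score is the log-transformed firefly/Renilla ratio as a per-plate robust z-score (median, median absolute deviation), median-centred per miRNA and averaged over at least two independent screens; more negative indicates interaction.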

MYCN = system: MYCN
Procedure, shortened: as §1

RB1 = system: RB1
Procedure, shortened: as §1

PHF6 = system: PHF6
Procedure, shortened: as §1

MYC = system: MYC
Procedure, shortened: as §1

NOTCH1 = system: NOTCH1
Procedure, shortened: as §1

ZEB2 = system: ZEB2
Procedure, shortened: as §1

MYB = system: MYB
Procedure, shortened: as §1

MYT1L = system: MYT1L
Procedure, shortened: as §1

PHOX2B = system: PHOX2B
Procedure, shortened: as §1

EZH2 = system: EZH2
Procedure, shortened: as §1

FBXW7 = system: FBXW7
Procedure, shortened: as §1

BRCA2 = system: BRCA2
Procedure, shortened: as §1

HRAS = system: HRAS
Procedure, shortened: as §1

Sequence	3' UTR reporter interaction score (TP53)	3' UTR reporter interaction score (MYCN)	3' UTR reporter interaction score (RB1)	3' UTR reporter interaction score (PHF6)	3' UTR reporter interaction score (MYC)	3' UTR reporter interaction score (NOTCH1)	3' UTR reporter interaction score (ZEB2)	3' UTR reporter interaction score (MYB)	3' UTR reporter interaction score (MYT1L)	3' UTR reporter interaction score (PHOX2B)	3' UTR reporter interaction score (EZH2)	3' UTR reporter interaction score (FBXW7)	3' UTR reporter interaction score (BRCA2)	3' UTR reporter interaction score (HRAS)
CAACCUGGAGGACUCCAUGCUG	0.0572	0.831	-2.92	-0.934	0.486	-0.127	0.335	1.15	0.329	-0.796	0.157	0.0371	0.635	0.685
CAACGGAAUCCCAAAAGCAGCU	-0.924	-0.12	0.747	-0.143	0.282	0.629	0.375	-0.0583	-1.32	-0.397	0.561	-0.229	-0.135	0.275
CAAGUCACUAGUGGUUCCGUUUA	-0.393	-0.0757	1.58	-0.71	-1.07	1.15	1.99	-0.363	-1.25	0.0612	0.168	1.35	0.252	-1.48
CACACACUGCAAUUACUUUUGC	0.266	0.192	-0.83	-0.242	0.144	-1.12	-2.35	-0.132	0.0502	0.662	0.0197	-1.17	1.28	0.537
CACCCGUAGAACCGACCUUGCG	-0.17	-0.0242	-0.00577	-0.967	0.596	-0.125	-1.09	0.655	-0.00069	-3.87	-0.866	0.377	0.615	0.575
CACUCAGCCUUGAGGGCACUUUC	0.0719	1.12	0.059	-4	-1.6	0.801	0.556	1.11	-1.55	0.0189	0.269	-1.64	0.623	-0.0814
CAGCAGCAAUUCAUGUUUUGAA	0.52	-0.622	0.649	2.81	-0.0621	0.0853	0.626	-2.05	-4.35	1.12	-0.709	-2.64	0.886	-0.93
CAGCAGCACACUGUGGUUUGU	-0.308	-0.42	-0.141	1.13	0.347	-0.283	1.1	-2.62	-4.01	0.464	-1.21	-2.99	0.267	-1.05
CAGUAACAAAGAUUCAUCCUUGU	-0.52	1.32	-3.18	-3.72	-0.308	-0.945	0.308	0.361	-0.326	-1.19	0.69	-0.152	-0.621	0.555
CAGUGCAAUGAUGAAAGGGCAU	-0.295	1.64	1.03	0.644	0.674	0.857	-0.474	-1.75	0.286	-0.853	-0.471	0.958	-0.463	-0.234
CAGUGCAAUGUUAAAAGGGCAU	-0.31	1.42	1.55	0.0914	0.265	0.727	-0.231	-1.89	-0.334	0.897	-0.606	0.774	-0.00105	-0.0408
CAUAAAGUAGAAAGCACUAC	-0.122	-0.0538	0.941	-0.673	0.0993	0.3	-0.00923	-0.0675	-0.385	0.845	-0.0463	-0.553	0.352	-0.266
CAUCCCUUGCAUGGUGGAGGGU	0.105	1.03	-1.51	-0.203	0.286	0.0724	-1.03	0.193	-1.78	-0.0949	0.459	-2.06	-0.755	-0.474
CAUCUGGAGGUAAGAAGCACUUU	-1.18	-0.232	0.4	1.19	-0.242	-0.32	1.48	-2.31	-1.9	-0.503	0.237	0.143	0.269	0.165
CAUCUUACCGGACAGUGCUGGA	-0.701	-0.576	-0.297	0.881	-0.0291	0.335	-2.11	-1.55	-0.174	0.65	0.0963	-0.296	0.868	0.319
CAUGCCUUGAGUGUAGGACCGU	0.524	-0.364	0.637	1.76	-1.17	-0.883	-1.59	0.293	-1.07	-1.4	0.42	0.998	0.421	-0.893
CAUUGCACUUGUCUCGGUCUGA	-0.48	-0.0953	0.825	-1.24	0.278	-0.145	-2.69	-0.142	0.397	-0.664	0.125	-0.0954	0.658	-0.416
CCACACCGUAUCUGACACUUU	0.0153	0.101	0.211	0.504	-1.37	-0.439	1.51	-0.254	0.0842	0.567	-0.643	0.287	-0.654	-0.828
CCACUGCCCCAGGUGCUGCUGG	-1.28	0.562	0.0205	0.422	0.494	-1.62	-1.03	0	1.35	0.479	-0.183	-0.902	-0.289	-0.594

Sequence	3' UTR reporter interaction score (TP53)	3' UTR reporter interaction score (MYCN)	3' UTR reporter interaction score (RB1)	3' UTR reporter interaction score (PHF6)	3' UTR reporter interaction score (MYC)	3' UTR reporter interaction score (NOTCH1)	3' UTR reporter interaction score (ZEB2)	3' UTR reporter interaction score (MYB)	3' UTR reporter interaction score (MYT1L)	3' UTR reporter interaction score (PHOX2B)	3' UTR reporter interaction score (EZH2)	3' UTR reporter interaction score (FBXW7)	3' UTR reporter interaction score (BRCA2)	3' UTR reporter interaction score (HRAS)
CCCAGAUAAUGGCACUCUCAA	-0.804	-0.998	-2.36	-0.296	0.82	-0.834	0.427	0.409	0.0372	0.745	0.0427	-0.29	0.00154	0.111
CCCAGUGUUCAGACUACCUGUUC	-0.337	0.198	-1.81	0.112	0.666	0.374	-0.517	1.64	2.99	-0.196	-0.25	-0.85	0.218	-0.0015
CCCAGUGUUUAGACUAUCUGUUC	-0.323	0.905	-0.794	0.458	0.186	-0.226	0.476	0.059	1.93	-0.251	-0.185	-0.738	0.494	-0.315
CCUCUAGAUGGAAGCACUGUCU	-0.0691	-0.452	1.24	0.44	-0.352	0.00559	0.763	1.05	-0.377	-0.512	0.875	-0.485	1.43	0.49
CCUCUGGGCCCUUCCUCCAG	1.37	0.2	0.604	1.9	-0.307	-0.555	0.525	0.205	-1.13	-0.825	-0.302	-0.553	1.66	0.196
CGAAUGUUGCUCGGUGAACCCCU	-0.241	0.119	0.281	-1.07	0.217	1.32	-0.941	0.287	0.642	1.32	-0.254	0.304	-0.821	-0.194
CGCAUCCCCUAGGGCAUUGGUGU	0.263	-0.239	-0.799	-0.956	0.19	-1.34	-0.392	-0.38	-3.16	0.221	0.639	-0.0954	0.625	1.06
CGGGUGGAUCACGAUGCAAUUU	0.809	0.00745	0.702	-0.0241	0.166	0.128	-1.87	-0.118	0.0585	-0.988	-0.645	0.899	0.639	-0.371
CUAAUAGUAUCUACCACAAUAAA	-0.375	0.604	-0.459	-0.303	-0.306	0.264	0.675	1.16	-0.606	0.231	0.167	0.465	0.274	-0.78
CUACAAAGGGAAGCACUUUCUC	-1.31	-0.614	0.032	0.716	0.411	0.148	-3.59	0.666	0.757	1.76	0.77	-0.7	-0.805	-1.25
CUCCAGAGGGAAGUACUUUCU	-0.641	-0.236	-2.92	1.27	-0.333	-0.176	0.514	1.53	1.19	0.786	-0.448	1.4	-0.139	-1.03
CUCCAGAGGGAUGCACUUUCU	0.339	-0.234	0.459	1.04	0.629	0.885	-0.701	-0.659	0.128	1.08	0.363	-0.219	-0.169	-0.937
CUCUAGAGGGAAGCACUUUCU	-0.127	-0.174	-0.897	-0.252	0.565	0.59	1.31	1.78	-0.138	-1.07	-0.021	-1.73	-0.166	0.934
CUCUAGAGGGAAGCACUUUCUCU	-0.432	-0.181	-0.223	-0.193	0.549	0.176	-0.685	2.18	0.381	-2.05	-0.139	-2.17	-0.0386	1.4
CUCUAGAGGGAAGCGCUUUCUGUU	0.361	-0.278	-0.121	-0.0745	0.337	1.16	0.37	1.71	0.721	-1.2	-0.269	-0.944	-0.378	-0.0223
CUCUUGAGGGAAGCACUUUCUGUU	0.305	0.894	-0.331	-2.75	-0.277	-0.119	-0.69	1.52	0.407	-0.0184	1.02	1.21	0.199	-0.664
CUGAAGUGAUGUGUAACUGAUCAG	0.516	-0.441	-0.534	-0.442	0.252	2.11	-0.764	-1.34	1.21	-1.07	0.809	-0.0116	-1.33	0.253
CUGACCUAUGAAUUGACAGCC	0.334	1.31	-2.94	-3.78	1.2	0.282	-6.22	0.682	0.445	-1.28	-0.124	-0.577	-0.668	0.344
CUGCAAAGGGAAGCCCUUUCU	0.104	1.29	1.27	-2.67	1.15	-1.22	-4.11	1.16	0.529	-0.887	-3.8	-3.15	-0.0732	0.112
